Patent US20120034613A1, “Apparatus and Method for Testing Relationships Between Gene Expression and Physical Appearance of Skin” (NSE Products, Inc., priority 2010, published 2012)

Tested on: EpidermFT™ Skin Model (EFT-400) full thickness skin cultures
Assay: Affymetrix GeneChip HG U133 Plus 2.0 microarray global gene expression, agent-exposed vs untreated skin cultures
Format: cell-based, human
Conditions: Salicin 0.5% vs Untreated Control, 24 hr; direction down

OCc1ccccc1O[C@@H]1O[C@H](CO)[C@@H](O)[C@H](O)[C@H]1O [Salicin, 2-(Hydroxymethyl)phenyl β-D-glucospyranoside]
Fold change IDH2 (210045_at): 2.059
Fold change IL22RA1 (220056_at): 2.023
Fold change INPP5D (203332_s_at): 2.061
Fold change ITGA3 (201474_s_at): 2.052
Fold change JAG1 (209099_x_at): 2.044
Fold change JAG1 (216268_s_at): 2.123
Fold change JMJD7 /// JMJD7-PLA2G4B /// PLA2G4B (222256_s_at): 2.101
Fold change KCNK7 (224055_x_at): 2.127
Fold change KCTD15 (222668_at): 2.037
Fold change KIF1B (209234_at): 2.105
Fold change KIF1B (225878_at): 2.14
Fold change KLK1 (216699_s_at): 2.169
Fold change KRT5 (201820_at): 2.154
Fold change KRT6A (209125_at): 2.034
Fold change KRT10 (207023_x_at): 2.066
Fold change KRTCAP3 (235148_at): 2.158
Fold change LMNA (212089_at): 2.1
Fold change LMNA (1554600_s_at): 2.053
Fold change LMNB1 (203276_at): 2.146
Fold change LOC284837 (1563088_a_at): 2.115
Fold change LOC286440 (209733_at): 2.16
Fold change LOC400027 (226413_at): 2.041
Fold change LOC401233 (1558882_at): 2.002
Fold change LOC648245 (227739_at): 2.064
Fold change LOC652968 (233528_s_at): 2.038
Fold change LOC727820 (227384_s_at): 2.055
Fold change LOC100128443 /// MAST4 (210958_s_at): 2.131
Fold change LOC100128822 (235174_s_at): 2.067
Fold change LOC100130837 (242255_at): 2.078
Fold change LOC100131262 (1558152_at): 2.081
Fold change LOC100131851 /// LOC100134497 /// LOC401002 /// LOC646674 /// SSBP3 (222482_at): 2.025
Fold change LOC100133772 /// SLC16A5 (206600_s_at): 2.044
Fold change LOC100134937 (229685_at): 2.12
Fold change LPHN1 (47560_at): 2.092
Fold change LY75 (205668_at): 2.028
Fold change LYSMD4 (228954_at): 2.116
Fold change MAFB (218559_s_at): 2.112
Fold change MAPRE2 (202501_at): 2.078
Fold change MEGF9 (212831_at): 2.176
Fold change MFAP5 (213764_s_at): 2.112
Fold change MIB2 (226644_at): 2.032
Fold change MPP7 (238451_at): 2.14
Fold change MTHFR (226929_at): 2.073
Fold change MTMR1 (214975_s_at): 2.146
Fold change MUC1 (213693_s_at): 2.138
Fold change MYO18A /// TIAF1 (202039_at): 2.04
Fold change NBEAL2 (212443_at): 2.05
Fold change NCF2 (209949_at): 2.128
Fold change NCRNA00086 (238697_at): 2.098
Fold change PAIP1 (208051_s_at): 2.141
Fold change PAIP2B (221868_at): 2.043
Fold change PAWR (204005_s_at): 2.161
Fold change PAWR (229515_at): 2.15
Fold change PDIK1L (227255_at): 2.059
Fold change PERP (217744_s_at): 2.176
Fold change PIGW (1558292_s_at): 2.085
Fold change PLEKHA2 (225136_at): 2.159
Fold change PLS3 (201215_at): 2.167
Fold change PNMA2 (209598_at): 2.146
Fold change POLE2 (205909_at): 2.104
Fold change POLH (231115_at): 2.029
Fold change POLR3B (219459_at): 2.135
Fold change POU3F1 (208345_s_at): 2.16
Fold change PPAP2C (209529_at): 2.033
Fold change PPP1CB (201409_s_at): 2.054
Fold change PPP2CA (208652_at): 2.035
Fold change PRDX2 (39729_at): 2.068
Fold change PRKX (204061_at): 2.015
Fold change PTCH1 (209815_at): 2.148
Fold change PTGFR (1555097_a_at): 2.022
Fold change PVRL1 (225211_at): 2.08
Fold change RAB7B (1553982_a_at): 2.095
Fold change RAPGEFL1 (218657_at): 2.162
Fold change RHOV (241990_at): 2.107
Fold change RICS (203431_s_at): 2.143
Fold change RNF170 (226104_at): 2.034
Fold change RORA (235567_at): 2.083
Fold change RPS6KA5 (204633_s_at): 2.051
Fold change RPS6KB2 (203777_s_at): 2.074
Fold change SCRN3 (222849_s_at): 2.115
Fold change SDCCAG8 (243963_at): 2.133
Fold change SEMA4D (203528_at): 2.021
Fold change SERPINB1 (213572_s_at): 2.014
Fold change SETBP1 (227478_at): 2.148
Fold change SHROOM2 (204967_at): 2.088
Fold change SLC5A3 (212944_at): 2.165
Fold change SLC24A3 (219090_at): 2.138
Fold change SLC45A4 (225598_at): 2.071
Fold change SLCO3A1 (219229_at): 2.162
Fold change SMAP2 (225282_at): 2.14
Fold change SMCR7 (235896_s_at): 2.152
Fold change SNX21 (1553960_at): 2.031
Fold change SNX24 (218705_s_at): 2.152
Fold change SORD (201563_at): 2.01
Fold change ST8SIA4 (230836_at): 2.021
Fold change STK24 (208854_s_at): 2.165
Fold change SYNGR2 (201079_at): 2.14
Fold change TANC1 (225308_s_at): 2.118
Fold change TCEA3 (226388_at): 2.034
Fold change TCHP (223455_at): 2.126
Fold change TGOLN2 (1554608_at): 2.114
Fold change THBD (203888_at): 2.109
Fold change TIMM22 (219184_x_at): 2.067
Fold change TMC5 (222904_s_at): 2.096
Fold change TMEM19 (226860_at): 2.032
Fold change TMEM45A (219410_at): 2.136
Fold change TMEM50B (225182_at): 2.096
Fold change TMEM80 (65630_at): 2.031
Fold change TP53I3 (210609_s_at): 2.13
Fold change TRAF3IP2 (202987_at): 2.079
Fold change TRIM2 (202342_s_at): 2.062
Fold change TTC30B (1554588_a_at): 2.011
Fold change VPS4B (218171_at): 2.031
Fold change WNK1 (39313_at): 2.008
